Results as given in patent publication US20260166170A1, “ANTIBODY DRUG CONJUGATE COMPRISING NMT INHIBITOR AND ITS USE” (MyricX Pharma Limited, priority 2022, published 2026).

B1: ifinatamab-DXd: ifinatamab-deruxtecan, comparator ADC (conjugate, chains of the INN, looked up)
VH: QVQLVQSGAEVKKPGSSVKVSCKASGYTFTNYVMHWVRQAPGQGLEWMGYINPYNDDVKYNEKFKGRVTITADESTSTAYMELSSLRSEDTAVYYCARWGYYGSPLYYFDYWGQGTLVTVSS
VL: EIVLTQSPATLSLSPGERATLSCRASSRLIYMHWYQQKPGQAPRPLIYATSNLASGIPARFSGSGSGTDFTLTISSLEPEDFAVYYCQQWNSNPPTFGQGTKVEIK
modifications: deruxtecan (DXd) payload
notes: ifinatamab-deruxtecan, comparator ADC

What was measured:
[1] = test system: BT474 breast cancer cells; experiment: Orthotopic breast cancer xenograft model; type: in vivo, NOD/SCID mice; settings: trastuzumab or ADC Example 1 2.5 or 5 mg/kg; NMT inhibitor 1 2 mg/kg
Protocol: During the study, body weights were measured three times weekly for all animals. Animals were given Diet Gel for the entire duration on the study.

[2] = test system: LNCaP tumours; experiment: LNCaP prostate cancer xenograft model; type: in vivo, male NOD SCID mice; settings: IV, Q7D (x3); for Tumour growth inhibition (TGI, %): day 28
Text: Adjusted p value calculated by Kruskal-Wallis test and Dunn's multiple comparisons relative to vehicle control. […] C is the mean tumour volume of the control Group 1 mice on the measurement day and C0 is the mean tumour volume on Study Day 0.

[3] = test system: VCaP human prostate cancer xenograft; experiment: VCaP prostate cancer xenograft model; type: in vivo, non-castrated male CB17/SCID mice
Protocol: The objective of this study was to evaluate preclinically the in vivo therapeutic efficacy of ADC Example 4 in the treatment of subcutaneous VCaP human prostate cancer xenograft model in non-castrated male CB17/SCID mice.
In this study, 144 mice were inoculated subcutaneously in the right front flank region with 1×10^7 viable VCaP tumour cells resuspended in 0.1 mL of PBS mixed with Matrigel (1:1) for tumour development on Study Day−20. 80 mice were assigned to 8 treatment groups when tumour volumes averaged ˜162.16 mm^3 on Study Day 0. Dosing commenced the following day and all animals were dosed intravenously with ADC Example 4, ifinatamab-deruxtecan (ifinatamab-Dxd) or unconjugated ifinatamab. All mice received two doses of test agent, on Study Day 1 and Study Day 8. The study was terminated on Study Day 30.

[4] = test system: JIMT-1 human breast xenograft; experiment: JIMT-1 breast cancer xenograft model; type: in vivo
Text: The study was terminated on the Study Day 60.

| Molecule | LNCaP tumour volume compared to vehicle control ([2]; 5 mg/kg) | LNCaP tumour volume compared to vehicle control ([2]; 10 mg/kg) | Tumour growth inhibition (TGI, %) ([2]; 10 mg/kg) [%] | tumour volumes compared to vehicle alone ([3]; 2.5 mg/kg) | tumour volumes compared to vehicle alone ([3]; 5 mg/kg) | tumour volumes compared to vehicle alone ([4]; 2.5 mg/kg) | tumour volumes compared to vehicle alone ([4]; 5 mg/kg) | other results |
| --- | --- | --- | --- | --- | --- | --- | --- | --- |
| CNCc1cnc2ccc(-c3ccc(F)c(F)c3OCCc3c(C(O)C(C)(C)C)nn(C)c3C)cn12 (centres unmarked) [NMT inhibitor 1, 1-(4-(2-(2,3-difluoro-6-(3-((methylamino)methyl)imidazo[1,2-a]pyridin-6-yl)phenoxy)ethyl)-1,5-dimethyl-1H-pyrazol-3-yl)-2,2-dimethylpropan-1-ol] | – | – | – | – | – | – | – | body weights of mice compared to vehicle control [1]: decreased significantly |
| ifinatamab | no significant effect | no significant effect | 13.0 | no significant difference | no significant difference | – | – | – |
| sacituzumab | – | – | – | – | – | no significant difference | significant decrease | – |
| sacituzumab govitecan [reference compound] | – | – | – | – | – | significant decrease | significant decrease | – |
| B1 | slowed the growth of LNCaP tumours to a lesser extent | significantly reduced the mean volume of LNCaP tumours | 75.0 | no significant difference | significantly higher tumour volume | – | – | Day 28 tumour volume (mm^3, mean ± SEM) ([2]; 5 mg/kg): 364.6 ± 51.7 mm^3; Tumour growth inhibition (TGI, %) ([2]; 5 mg/kg): 58.8%; Day 28 tumour volume (mm^3, mean ± SEM) ([2]; 10 mg/kg): 259.5 ± 50.3 mm^3; ΔTGI (Study Day 17) ([3]; 2.5 mg/kg IV QW × 2 weeks): 5.24%; ΔTGI (Study Day 17) ([3]; 5 mg/kg IV QW × 2 weeks): 2.86% |
